Results: patent US20150071918A1, “PEPTIDES FOR THE TREATMENT OF CANCER” (H. LEE MOFFITT CANCER CENTER AND RESEARCH INSTITUTE, INC., priority 2012, published 2015)
“Also recorded” adds a separate entry of the source. *1 amine or outer side, *2 acyl side, *3 side chain or, on linkers, in order; H or OH if unused. Where a SMILES comes first, the peptide text is derived from it. Bridges are numbered along the chain shown (N, C = ends). [ ]: non-standard residue; d: D form. The star is where a group is joined. dProlinol(O-CH2CO) = O=C(COC[C@H]1CCCN1[*:1])[*:2]; N(2-Aminoethyl)Gly = O=C(CN(CCN[*:3])[*:1])[*:2]; Nle = CCCC[C@H](N)C(=O)O; Ms = CS(=O)(=O)*

Experiments:
HL-60 = experiment: HM-27 induced cell death in AML cell line, TO-PRO-3 staining and FACS; format: cell-based
Procedure: (§1) FIGS. 42A-42B. […] U937, HL-60 and NB4 cells were treated with varying doses of HM-27 for 24 hr and cell death was determined as described in Materials and Methods. U937 and NB4 cells (150,000) exposed to HM-27 for 24 h were collected and analyzed for Caspase 3 activity using the FITC Active Caspase-3 Apoptosis Kit (BDPharmingen) as per manufacturer's instructions. All figures are a representative of three independent experiments done in triplicates.
(§2) Cells were collected after incubation with HM-27 and analyzed for markers of cell death indicative of either apoptosis, autophagy or necrosis. BM-MNCs were isolated from marrow aspirates of AML patients and normal individuals by Ficoll-Paque centrifugation and further enriched for CD34+ cells using immunomagnetic beads. Cell death was assessed by TO-PRO-3 staining followed by FACS analysis.

NB4 = experiment: as above; format: cell-based
Procedure: as §1, §2

U937 = experiment: as above; format: cell-based
Procedure: as §1, §2

[1] = test system: H929 myeloma cells engrafted into the bone implant; experiment: MM SCID-Hu in vivo model, tumor burden by circulating Kappa/paraprotein levels (ELISA); design: species or system mice; conditions: H929, 8 mg/kg i.p.
Procedure: Briefly, 50,000 H929 myeloma cells were engrafted into the bone implant for 10 days prior to initiation of peptide treatment. Following tumor engraftment mice were randomized (0 time point) and injected with 8 mg/kg c-HYD1 or vehicle control (VC) daily (I.P. injections) for 14 days and every other day from day 14-28 at which time treatment stopped. Tumor burden was measured by circulating Kappa levels by ELISA weekly. N=10 mice for vehicle control (VC) and 9 mice for c-HYD1 treated.
(§3) FIG. 49. Cyclic HYD1 (MTI-101) was dosed daily at 8 mpk for the first week and then every other day for 4 weeks. The mice were bled weekly to measure paraprotein as a surrogate for tumor burden. […] Three of five vehicle-treated control animals had died by 35 days which contributes to the large SD.
FIGS. 61A-61C. MTI-101 inhibits tumor growth and increases survival in two independent myeloma in vivo models. […] FIG. 61A: Scid-hu model: Following tumor engraftment (2 weeks) mice were randomized (0 time point) and injected with 8 mg/kg MT101 or vehicle control (control) daily (i.p. injections) for 14 days and every other day from day 14-28 at which time treatment stopped. Tumor burden was measured by circulating paraprotein (K light chain) levels by ELISA weekly. […] Images were quantified utilizing Image J and tumor volume in the bone was quantified relative to the entire bone volume (n=5 tibias per group).

[2] = Weight of mice and overt signs of toxicity under peptide injection; format: in vivo; conditions: mice treated with cyclized HYD1
Procedure: FIG. 37 is a graph showing the effect of cyclized HYD1 (MTI-101) injection on the weight of mice.
as §3

H929 cells = experiment: Growth inhibition by MTT, combination index (CalcuSyn), 72 hours; format: cell-based, human; conditions: H929, 72 hours
Procedure: FIGS. 59A-59B. H929 cells were treated with varying concentrations of MTI-101 alone or in combination with either chloroquine (FIG. 59A), or bortezomib (FIG. 59B). Following 72 hours of drug treatment growth inhibition was determined by MTT analysis. Data generated were used to calculate the combination index (CI) using CalcuSyn software developed by Chou and Talalay. MTI-101 is synergistic with bortezomib (a proteosome inhibitor) and chloroquine (an inhibitor of autophagy).

[3] = test system: normal CD34-positive cells; experiment: Cell death in CD34+ cells from normal individuals; format: cell-based, human; conditions: 24 hours
Procedure: FIG. 45. Primary CD34+AML cells are sensitive to HM-27 (MTI-101) while their normal counterparts are not. Enriched CD34+ cells from peripheral blood and bone marrow of normal individuals were treated with varying doses of HM-27 for 24 hours and then analyzed for cell death as described in the Materials and Methods.
FIG. 64. MTI-101 induces cell death in primary CD34 progenitor cells from AML patient. […] CD34-positive cells were enriched using immunomagnetic beads in primary AML samples and normal bone marrow aspirates. Cell death was measured by annexin V positivity and FACS analysis.
as §2

[4] = test system: Caspase 3 activity and total ATP levels in AML cell lines; experiment: Markers of cell death in AML cell lines (Caspase 3 activity, ATP levels); format: cell-based
Procedure: as §1
FIGS. 43A-43C. Cell death in AML cell lines by HM-27 (MTI-101) is via necrosis. Drug-treated cells (50 μM for U937 and 75 μM for HL-60) were lysed in 2% Triton X-100 in PBS with protease inhibitors (Roche) and incubated on ice for 45 min with mixing every 15 min. The supernatant (lysate) was collected after centrifugation for 20 sec at 10K rcf and 4° C. […] Twenty microliters (20 μL) of the lysate was mixed with 100 μL of the (rL/L) reagent from the kit and the luminescence was measured immediately. The luminescence was corrected by subtracting the value obtained from the blank and was checked against a standard. The luminescence was then multiplied by 50 to represent the total ATP levels from the 1.2×10^6 cells collected. […]
Cells were collected after incubation with HM-27 and analyzed for markers of cell death indicative of either apoptosis, autophagy or necrosis. […] Cell death was assessed by TO-PRO-3 staining followed by FACS analysis.

CCCC[C@@H]1NC(=O)CN(S(C)(=O)=O)CCNC(=O)[C@H](CCCCN)NC(=O)[C@H](CC(C)C)NC(=O)[C@H](CCCCN)NC(=O)[C@H](CC(C)C)NC(=O)[C@H](CCCCN)NC(=O)COC[C@H]2CCCN2C(=O)[C@H](Cc2c[nH]c3ccccc23)NC(=O)[C@H](C)NC(=O)[C@H](C(C)C)NC(=O)[C@H](C(C)C)NC1=O [MTI-101] (Ms-[N(2-Aminoethyl)Gly][Nle]VVAW[dProlinol(O-CH2CO)]KLKLK; lactam 1-C)
IC50 (HL-60): 76.2 µM | IC50 (NB4): 65 µM | IC50 (U937): 38.5 µM | tumor growth / tumor burden [1]: significantly reduces tumor growth (p<0.05 ANOVA) | tumor growth / tumor burden ([1]; listed as c-HYD1): completely inhibits human MM tumor xenographs growth in SCID mice; also recorded: inhibits multiple myeloma engrafted tumor in the SCID-HU model | weight loss / signs of toxicity [2]: No weight loss or any overt signs of toxicity were observed | weight loss / signs of toxicity ([2]; listed as c-HYD1): no apparent toxicity | combination with bortezomib (H929 cells): synergistic | combination with chloroquine (H929 cells): synergistic | cell death in normal CD34+ cells [3]: devoid of activity in normal CD34-positive cells | cell death in normal CD34+ cells ([3]; listed as HM-27): CD34+ cells from normal individuals are not sensitive to HM-27 | ATP levels in AML cell lines [4]: resulted in ATP depletion | Caspase 3 activation in AML cell lines ([4]; 24 h): did not cause activation of Caspase 3
